Data published in ChEMBL document CHEMBL3352353, “Dicarba analogues of α-conotoxin RgIA. Structure, stability, and activity at potential pain targets” (J Med Chem, 2014).
Calls of active or inactive are those of the source. The rule behind the calls is not given here. Positions of bridges follow the written chain, without caps; N, C: chain ends. Non-standard residues stand in square brackets, D forms with d. Residues, ends and D or L forms follow the SMILES beside them. AllylGly = C=CC[C@H](N)C(=O)O

Columns and labels:
[1] = biological target: Voltage-dependent N-type calcium channel subunit alpha-1B (Rattus norvegicus) (UniProt Q02294); assay: Inhibition of N-type Ca channel in Wistar rat DRG neuron at 100 nM by whole cell patch clamp technique relative to control
[2] = biological target: T1, Nicotinic acetylcholine receptor alpha9/alpha10 (Rattus norvegicus) (UniProt P43144+Q9JLB5); assay: Inhibition of rat alpha9alpha10 nAChR expressed in Xenopus oocytes assessed as inhibition of Ach-evoked current at 30 uM after 5 mins by voltage-clamp technique; assay type: cell-based
[3] = biological target: T2, Neuronal acetylcholine receptor subunit alpha-7 (Homo sapiens, UniProt P36544); assay: Inhibition of human alpha7 nAChR expressed in Xenopus oocytes assessed as inhibition of Ach-evoked current after 5 mins by voltage-clamp technique; assay type: cell-based
[4] = biological target: Voltage-dependent N-type calcium channel subunit alpha-1B (Rattus norvegicus) (UniProt Q02294); assay: Inhibition of N-type Ca channel in Wistar rat DRG neuron at 1 nM by whole cell patch clamp technique relative to control
[5] = biological target: T1, Nicotinic acetylcholine receptor alpha9/alpha10 (Rattus norvegicus); assay: Inhibition of rat alpha9alpha10 nAChR expressed in Xenopus oocytes assessed as inhibition of Ach-evoked current at 3 uM after 5 mins by voltage-clamp technique; assay type: cell-based
[6] = biological target: T3, GABA-B receptor (Homo sapiens) (UniProt Q9UBS5+O75899); assay: Inhibition of human GABAB R1/R2 receptor expressed in HEK293 cells co-expressing human Cav2.2 alpha1B/alpha2delta1/beta3 channel assessed as inhibition of depolarization-activated Ba2+ current at 1 uM by whole cell patch clamp technique relative to control; assay type: cell-based
[7] = biological target: Nicotinic acetylcholine receptor alpha9/alpha10 (Rattus norvegicus, UniProt P43144+Q9JLB5); assay: (§1) Inhibition of rat alpha9alpha10 nAChR expressed in Xenopus oocytes assessed as inhibition of Ach-evoked current after 5 mins by voltage-clamp technique; assay type: cell-based
[8] = biological target: T4, Voltage-dependent N-type calcium channel subunit alpha-1B/Voltage-dependent calcium channel subunit alpha-2/delta-1/Voltage-dependent L-type calcium channel subunit beta-3 (Homo sapiens) (UniProt P54289+Q00975+P54284); assay: Inhibition of human Cav2.2 alpha1B/alpha2delta1/beta3 channel expressed in HEK293 cells assessed as inhibition of depolarization-activated Ba2+ current at 1 uM by whole cell patch clamp technique relative to control; assay type: cell-based
[9] = biological target: T3, GABA-B receptor (Homo sapiens); assay: Inhibition of human GABAB R1/R2 receptor expressed in HEK293 cells co-expressing human Cav2.2 alpha1B/alpha2delta1/beta3 channel assessed as inhibition of depolarization-activated Ba2+ current depolarization-activated Ba2+ current at 50 uM by whole cell patch clamp technique relative to control; assay type: cell-based
[10] = Metabolic stability in human serum assessed as compound remaining at 3 mM after 24 hrs by RP-HPLC analysis; assay type: ADME, cell-free; conditions: read-out: Stability
[11] = biological target: T3, GABA-B receptor (Homo sapiens); assay: Inhibition of human GABAB R1/R2 receptor expressed in HEK293 cells co-expressing human Cav2.2 alpha1B/alpha2delta1/beta3 channel assessed as inhibition of depolarization-activated Ba2+ current by whole cell patch clamp technique relative to control; assay type: cell-based
[12] = biological target: T3, GABA-B receptor (Homo sapiens); assay: Inhibition of human GABAB R1/R2 receptor expressed in HEK293 cells co-expressing human Cav2.2 alpha1B/alpha2delta1/beta3 channel assessed as inhibition of depolarization-activated Ba2+ current at 1 uM followed by compound washout by whole cell patch clamp technique relative to control; assay type: cell-based
[13] = Metabolic stability in human serum assessed as compound remaining at 3 mM after 1 hr by RP-HPLC analysis; assay type: ADME, cell-free; conditions: read-out: Stability
[14] = biological target: T4, Voltage-dependent N-type calcium channel subunit alpha-1B/Voltage-dependent calcium channel subunit alpha-2/delta-1/Voltage-dependent L-type calcium channel subunit beta-3 (Homo sapiens); assay: Inhibition of human GABAB R1/R2 receptor expressed in HEK293 cells co-expressing human Cav2.2 alpha1B/alpha2delta1/beta3 channel assessed as inhibition of depolarization-activated Ba2+ current at 50 uM followed by compound washout by whole cell patch clamp technique relative to control; assay type: cell-based
[15] = biological target: T2, Neuronal acetylcholine receptor subunit alpha-7; assay: Inhibition of human alpha7 nAChR expressed in Xenopus oocytes assessed as inhibition of Ach-evoked current at 3 uM after 5 mins by voltage-clamp technique; assay type: cell-based
[16] = biological target: T1, Nicotinic acetylcholine receptor alpha9/alpha10 (Rattus norvegicus); assay: as §1; assay type: cell-based
[17] = biological target: T3, GABA-B receptor (Homo sapiens); assay: Inhibition of human GABAB R1/R2 receptor expressed in HEK293 cells co-expressing human Cav2.2 alpha1B/alpha2delta1/beta3 channel assessed as inhibition of depolarization-activated Ba2+ current at 200 nM by whole cell patch clamp technique relative to control; assay type: cell-based

T2 sequence (P36544 whole entry): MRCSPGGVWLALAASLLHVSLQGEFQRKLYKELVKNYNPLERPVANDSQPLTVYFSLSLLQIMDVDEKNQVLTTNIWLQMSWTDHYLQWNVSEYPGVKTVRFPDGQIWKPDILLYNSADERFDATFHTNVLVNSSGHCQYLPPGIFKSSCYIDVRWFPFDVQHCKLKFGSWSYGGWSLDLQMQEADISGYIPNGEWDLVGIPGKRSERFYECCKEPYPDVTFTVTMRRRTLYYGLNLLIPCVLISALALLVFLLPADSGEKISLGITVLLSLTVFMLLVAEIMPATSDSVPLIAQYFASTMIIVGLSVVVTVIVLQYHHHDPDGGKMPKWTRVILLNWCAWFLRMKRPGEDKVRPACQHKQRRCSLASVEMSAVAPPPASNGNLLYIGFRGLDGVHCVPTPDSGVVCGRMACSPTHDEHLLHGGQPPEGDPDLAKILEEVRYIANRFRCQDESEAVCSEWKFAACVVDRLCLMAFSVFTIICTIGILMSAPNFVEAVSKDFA
Sequence of Voltage-dependent N-type calcium channel subunit alpha-1B (Rattus norvegicus) (Q02294 whole entry, looked up): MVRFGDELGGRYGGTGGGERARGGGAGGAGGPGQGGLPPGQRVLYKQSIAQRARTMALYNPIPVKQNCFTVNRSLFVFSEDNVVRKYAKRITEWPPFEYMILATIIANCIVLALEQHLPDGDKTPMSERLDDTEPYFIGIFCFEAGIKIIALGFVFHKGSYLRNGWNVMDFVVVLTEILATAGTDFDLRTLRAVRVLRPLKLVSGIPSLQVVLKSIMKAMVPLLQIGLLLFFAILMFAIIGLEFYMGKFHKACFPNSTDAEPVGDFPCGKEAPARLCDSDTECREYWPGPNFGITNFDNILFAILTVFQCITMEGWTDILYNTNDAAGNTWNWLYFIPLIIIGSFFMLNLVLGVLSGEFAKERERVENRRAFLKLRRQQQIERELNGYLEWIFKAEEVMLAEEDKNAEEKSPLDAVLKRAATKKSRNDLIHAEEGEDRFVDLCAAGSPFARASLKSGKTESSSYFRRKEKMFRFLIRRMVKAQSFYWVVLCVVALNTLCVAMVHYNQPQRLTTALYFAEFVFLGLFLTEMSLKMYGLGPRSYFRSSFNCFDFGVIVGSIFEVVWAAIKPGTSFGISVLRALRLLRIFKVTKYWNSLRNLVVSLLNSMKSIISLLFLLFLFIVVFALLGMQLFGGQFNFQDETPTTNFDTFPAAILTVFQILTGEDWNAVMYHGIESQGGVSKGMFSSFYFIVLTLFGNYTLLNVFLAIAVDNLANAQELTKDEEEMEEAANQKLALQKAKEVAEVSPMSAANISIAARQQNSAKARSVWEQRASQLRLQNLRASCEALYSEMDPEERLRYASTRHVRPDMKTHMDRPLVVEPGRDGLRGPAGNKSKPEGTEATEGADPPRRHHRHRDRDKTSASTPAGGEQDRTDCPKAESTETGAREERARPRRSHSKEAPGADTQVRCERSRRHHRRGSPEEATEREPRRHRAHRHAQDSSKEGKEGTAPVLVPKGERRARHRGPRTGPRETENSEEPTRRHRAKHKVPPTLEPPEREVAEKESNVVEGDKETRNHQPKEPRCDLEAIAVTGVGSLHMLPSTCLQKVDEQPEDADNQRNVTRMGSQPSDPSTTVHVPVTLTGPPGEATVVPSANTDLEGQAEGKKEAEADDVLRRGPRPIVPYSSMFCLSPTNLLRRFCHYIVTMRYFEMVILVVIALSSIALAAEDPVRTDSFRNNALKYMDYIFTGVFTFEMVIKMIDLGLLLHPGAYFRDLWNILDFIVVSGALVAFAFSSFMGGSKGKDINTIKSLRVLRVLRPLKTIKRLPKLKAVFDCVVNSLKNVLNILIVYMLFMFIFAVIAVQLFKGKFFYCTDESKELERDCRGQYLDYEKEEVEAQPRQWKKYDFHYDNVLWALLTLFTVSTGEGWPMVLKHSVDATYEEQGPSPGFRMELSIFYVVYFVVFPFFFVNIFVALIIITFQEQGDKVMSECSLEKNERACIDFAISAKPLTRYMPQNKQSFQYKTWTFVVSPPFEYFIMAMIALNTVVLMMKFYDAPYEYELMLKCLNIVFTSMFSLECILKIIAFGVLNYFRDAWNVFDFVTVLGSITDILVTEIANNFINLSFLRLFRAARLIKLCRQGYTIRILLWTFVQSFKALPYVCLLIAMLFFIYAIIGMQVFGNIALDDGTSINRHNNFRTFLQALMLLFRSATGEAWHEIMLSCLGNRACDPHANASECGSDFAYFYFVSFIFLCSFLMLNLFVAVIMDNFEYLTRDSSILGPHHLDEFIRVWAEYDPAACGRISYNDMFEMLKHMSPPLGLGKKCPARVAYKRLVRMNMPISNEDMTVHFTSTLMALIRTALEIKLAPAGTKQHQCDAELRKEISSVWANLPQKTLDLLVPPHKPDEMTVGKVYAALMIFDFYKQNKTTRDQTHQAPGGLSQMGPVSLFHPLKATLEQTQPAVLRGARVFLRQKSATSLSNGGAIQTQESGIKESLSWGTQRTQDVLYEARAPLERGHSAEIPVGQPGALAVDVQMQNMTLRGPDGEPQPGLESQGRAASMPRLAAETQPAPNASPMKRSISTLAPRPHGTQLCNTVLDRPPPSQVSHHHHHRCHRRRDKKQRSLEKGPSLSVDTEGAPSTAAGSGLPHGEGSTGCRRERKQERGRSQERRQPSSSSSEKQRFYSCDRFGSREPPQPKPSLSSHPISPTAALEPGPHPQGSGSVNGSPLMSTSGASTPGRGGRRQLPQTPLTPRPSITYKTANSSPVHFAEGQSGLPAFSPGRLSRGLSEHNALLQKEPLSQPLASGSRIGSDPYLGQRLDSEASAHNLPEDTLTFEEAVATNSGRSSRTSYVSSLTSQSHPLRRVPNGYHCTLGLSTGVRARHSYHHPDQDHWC
Sequence of Nicotinic acetylcholine receptor alpha9/alpha10 (P43144 whole entry): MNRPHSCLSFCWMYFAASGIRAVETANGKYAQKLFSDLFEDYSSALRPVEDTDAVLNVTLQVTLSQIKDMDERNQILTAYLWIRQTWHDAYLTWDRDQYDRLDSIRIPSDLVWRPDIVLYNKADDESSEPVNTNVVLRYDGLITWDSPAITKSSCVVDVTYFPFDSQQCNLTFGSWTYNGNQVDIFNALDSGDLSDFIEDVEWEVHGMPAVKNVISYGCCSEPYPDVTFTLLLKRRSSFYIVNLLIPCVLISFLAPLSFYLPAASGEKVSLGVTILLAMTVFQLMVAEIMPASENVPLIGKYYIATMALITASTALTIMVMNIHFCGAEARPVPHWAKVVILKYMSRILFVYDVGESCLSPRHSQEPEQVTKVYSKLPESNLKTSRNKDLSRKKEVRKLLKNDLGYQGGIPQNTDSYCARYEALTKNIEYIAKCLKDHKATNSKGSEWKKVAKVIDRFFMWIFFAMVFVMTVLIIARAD
Sequence of Nicotinic acetylcholine receptor alpha9/alpha10 (Q9JLB5 whole entry): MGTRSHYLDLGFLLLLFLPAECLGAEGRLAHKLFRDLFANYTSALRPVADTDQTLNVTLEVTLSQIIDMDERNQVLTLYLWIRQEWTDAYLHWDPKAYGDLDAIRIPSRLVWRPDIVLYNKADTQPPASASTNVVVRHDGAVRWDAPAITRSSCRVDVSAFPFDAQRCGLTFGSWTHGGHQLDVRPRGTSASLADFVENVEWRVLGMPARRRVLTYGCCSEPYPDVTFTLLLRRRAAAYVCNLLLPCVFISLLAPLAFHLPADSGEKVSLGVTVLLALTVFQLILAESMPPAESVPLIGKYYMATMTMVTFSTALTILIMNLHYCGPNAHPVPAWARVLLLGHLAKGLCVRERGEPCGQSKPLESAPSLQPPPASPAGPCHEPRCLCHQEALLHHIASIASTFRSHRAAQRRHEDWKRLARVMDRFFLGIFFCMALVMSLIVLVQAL

SMILES	inhibition [1]	inhibition [2]	IC50 [3] [nM]	inhibition [4]	inhibition [5] [%]	inhibition [6]	IC50 [7] [nM]	other results
N=C(N)NCCC[C@H](NC(=O)[C@@H]1CSSC[C@@H]2NC(=O)[C@@H](NC(=O)CN)C/C=C/C[C@H](NC(=O)[C@H](CCCNC(=N)N)NC(=O)[C@@H]3CCCN3C(=O)[C@H](CC(=O)O)NC(=O)[C@H](CO)NC2=O)C(=O)N[C@@H](CCCNC(=N)N)C(=O)N[C@@H](Cc2ccc(O)cc2)C(=O)N[C@@H](CCCNC(=N)N)C(=O)N1)C(=O)O	Active	inactive						
N=C(N)NCCC[C@H](NC(=O)[C@@H]1C/C=C/C[C@@H]2NC(=O)[C@@H](NC(=O)CN)CSSC[C@H](NC(=O)[C@H](CCCNC(=N)N)NC(=O)[C@@H]3CCCN3C(=O)[C@H](CC(=O)O)NC(=O)[C@H](CO)NC2=O)C(=O)N[C@@H](CCCNC(=N)N)C(=O)N[C@@H](Cc2ccc(O)cc2)C(=O)N[C@@H](CCCNC(=N)N)C(=O)N1)C(=O)O (H-GC[AllylGly]SDPRCRYR[AllylGly]R-OH; disulfide 2-8; staple (E) 3-12)			3950	inactive	35.4	inactive	1150	
N=C(N)NCCC[C@H](NC(=O)[C@@H]1CSSC[C@@H]2NC(=O)[C@@H](NC(=O)CN)C/C=C\C[C@H](NC(=O)[C@H](CCCNC(=N)N)NC(=O)[C@@H]3CCCN3C(=O)[C@H](CC(=O)O)NC(=O)[C@H](CO)NC2=O)C(=O)N[C@@H](CCCNC(=N)N)C(=O)N[C@@H](Cc2ccc(O)cc2)C(=O)N[C@@H](CCCNC(=N)N)C(=O)N1)C(=O)O	Active	inactive				35%		inhibition [8]: inactive; inhibition [9]: Active; remaining at 24 h, 3000 µM [10]: 2%; inhibition [11]: Dose-dependent effect; inhibition [12]: Active; remaining at 1 h, 3000 µM [13]: 30%; inhibition [14]: inactive
N=C(N)NCCC[C@H](NC(=O)[C@@H]1C/C=C\C[C@@H]2NC(=O)[C@@H](NC(=O)CN)CSSC[C@H](NC(=O)[C@H](CCCNC(=N)N)NC(=O)[C@@H]3CCCN3C(=O)[C@H](CC(=O)O)NC(=O)[C@H](CO)NC2=O)C(=O)N[C@@H](CCCNC(=N)N)C(=O)N[C@@H](Cc2ccc(O)cc2)C(=O)N[C@@H](CCCNC(=N)N)C(=O)N1)C(=O)O (H-GC[AllylGly]SDPRCRYR[AllylGly]R-OH; disulfide 2-8; staple (Z) 3-12)				inactive	31.5		1470	inhibition [15]: inactive
N=C(N)NCCC[C@H](NC(=O)[C@@H]1CSSC[C@@H]2NC(=O)[C@@H](NC(=O)CN)CSSC[C@H](NC(=O)[C@H](CCCNC(=N)N)NC(=O)[C@@H]3CCCN3C(=O)[C@H](CC(=O)O)NC(=O)[C@H](CO)NC2=O)C(=O)N[C@@H](CCCNC(=N)N)C(=O)N[C@@H](Cc2ccc(O)cc2)C(=O)N[C@@H](CCCNC(=N)N)C(=O)N1)C(=O)O	60.6%		3300					inhibition [3]: Dose-dependent effect; inhibition [16]: Dose-dependent effect; inhibition [17]: 20%
